Laboratory results reported in PubChem BioAssay (NCI).
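96-well plates; 48 h exposure; 5 concentrations. Endpoints by linear interpolation between flanking doses. Not reached: highest tested concentration assigned. TGI marks complete inhibition of growth.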

Assays:
Test in all cases: DTP human tumour cell line panel, 48 h
A498 renal = system: A498 renal
HOP-62 NSCLC = system: HOP-62 NSCLC
HOP-92 NSCLC = system: HOP-92 NSCLC
KM12 colon = system: KM12 colon
LOX IMVI melanoma = system: LOX IMVI melanoma
NCI-H522 lung = system: NCI-H522 lung
SF-295 CNS = system: SF-295 CNS
SK-MEL-28 melanoma = system: SK-MEL-28 melanoma
SNB-19 CNS = system: SNB-19 CNS
SW-620 colon = system: SW-620 colon
TK-10 renal = system: TK-10 renal
U251 CNS = system: U251 CNS
UACC-257 melanoma = system: UACC-257 melanoma
UACC-62 melanoma = system: UACC-62 melanoma
MCF7 breast = system: MCF7 breast
MDA-MB-435 = system: MDA-MB-435
MOLT-4 leukemia = system: MOLT-4 leukemia
NCI/ADR-RES ovarian = system: NCI/ADR-RES ovarian
PC-3 prostate = system: PC-3 prostate

Compound	TGI (A498 renal) [µM]	TGI (HOP-62 NSCLC) [µM]	TGI (HOP-92 NSCLC) [µM]	TGI (KM12 colon) [µM]	TGI (LOX IMVI melanoma) [µM]	TGI (NCI-H522 lung) [µM]	TGI (SF-295 CNS) [µM]	TGI (SK-MEL-28 melanoma) [µM]	TGI (SNB-19 CNS) [µM]	TGI (SW-620 colon) [µM]	TGI (TK-10 renal) [µM]	TGI (U251 CNS) [µM]	TGI (UACC-257 melanoma) [µM]	TGI (UACC-62 melanoma) [µM]	TGI (MCF7 breast) [µM]	TGI (MDA-MB-435) [µM]	TGI (MOLT-4 leukemia) [µM]	TGI (NCI/ADR-RES ovarian) [µM]	TGI (PC-3 prostate) [µM]
CC(=O)OCCOCNC(=S)N/N=C/c1cc([N+](=O)[O-])ccc1O	> 100	> 100	> 100	> 100	> 100	> 100	> 100	> 100	> 100	> 100	> 100	> 100	> 100	> 100	–	–	–	–	–
O=C1Cc2nc(CO)c(CO)c(CO)c2CO1	> 100	> 100	> 100	> 100	> 100	> 100	> 100	> 100	> 100	> 100	> 100	> 100	> 100	> 100	–	–	–	–	–
COc1ccc2c(C)c(Oc3c(Cl)c(Cl)c(O)c(C#N)c3C#N)oc2c1	> 100	> 100	–	> 100	> 100	> 100	> 100	> 100	> 100	> 100	> 100	> 100	> 100	> 100	> 100	> 100	> 100	> 100	> 100
CC(C)(Oc1ccc(Cl)cc1)C(=O)N(C(=O)N1CCCCC1)c1ccccc1	32.8	–	–	41.2	26.6	–	–	44.6	42.5	> 100	–	39.2	–	27.5	47.3	> 100	84.8	37.4	20
COc1ccc(N2C(=O)C3c4[nH]c5ccccc5c4C4CC(C)(C)CC(C)(C)C4C3C2=O)cc1 (stereo unspecified)	30.1	31.3	28.7	–	–	38.1	21.4	27.7	52.7	71.7	–	31.2	46.1	27.6	–	–	36.6	–	–
CC(=O)NCCCCN(CCCNC(C)=O)C(=O)CNS(=O)(=O)c1cccc2c(N(C)C)cccc12	> 100	> 100	> 100	–	> 100	> 100	> 100	> 100	> 100	> 100	> 100	> 100	> 100	> 100	> 100	> 100	> 100	–	> 100
Cc1c(/C=N/NC(=S)Nc2ccc(Cl)cc2)c(=O)n(-c2ccccc2)n1C	> 58.8	27.5	–	99.4	> 100	22.4	44.5	> 100	> 60.8	> 100	> 58.3	30.7	> 100	> 79	> 54.9	> 100	> 100	48.9	> 100
c1cc2nnsc2s1	> 100	> 100	> 100	> 100	> 100	> 100	> 100	> 100	> 100	> 100	> 100	> 100	> 100	> 100	–	–	> 100	–	–
CNC1c2ccccc2C(=O)c2cc3c(cc21)OCCOCCOCCOCCO3 (stereo unspecified)	–	> 100	–	> 100	–	> 100	> 100	> 100	> 100	> 100	> 100	> 100	> 100	–	> 100	> 100	92.2	> 100	> 100
Cc1ccc(OCC2OC(n3cnc4nc(Nc5ccc(Cl)c(Cl)c5)nc(Cl)c43)CC2Oc2ccc(C)cc2)cc1 (stereo unspecified)	–	> 100	–	> 100	–	–	> 100	> 100	> 100	> 100	> 100	> 100	> 100	> 100	> 100	> 100	> 100	> 100	> 100
CC1C2CC(CC2(C)O)C1(C)C (stereo unspecified)	> 100	> 100	> 100	> 100	–	> 100	> 100	> 100	> 100	> 100	> 100	> 100	> 100	> 100	> 100	–	> 100	–	> 100
O=C(Cc1ccccc1)NN1C(=O)/C(=C\c2cccc([N+](=O)[O-])c2)SC1=Nc1ccccc1	> 100	> 100	> 100	> 100	–	–	> 100	> 100	> 100	> 100	> 100	> 100	> 100	> 100	> 100	> 100	> 100	> 100	–
COc1cc(C2OC(N)=C(C#N)C3=C2C(C)CCC3)cc(OC)c1OC (stereo unspecified)	–	40.7	–	> 100	> 100	–	> 100	> 100	> 100	> 100	> 100	> 100	> 100	> 100	> 100	> 100	> 100	> 100	> 100
COc1ccccc1C(=O)NO	–	> 100	–	> 100	> 100	> 100	> 100	> 100	> 100	> 100	> 100	> 100	> 100	> 100	> 100	> 100	> 100	> 100	> 100
